Source: US9000002B2, “N1-substituted-5-fluoro-2-oxopyrimidinone-1(2H)-carboxamide derivatives” (Dow Agrosciences LLC, priority 2009, dated 2015)
Like-named read-outs stand apart in the source and are kept apart here.

Columns and labels:
[1] = system: Mycosphaerella graminicola; Anamorph: Septoria tritici; Bayer Code SEPTTR; test: Evaluation of fungicidal activity: leaf blotch of wheat (SEPTTR), wheat plants variety Yuma; type: in vivo; conditions: Zymoseptoria tritici, 100 ppm, wheat plants, percent control vs untreated inoculated plants
Procedure: Evaluation of Fungicidal Activity: Leaf Blotch of Wheat (Mycosphaerella graminicola; Anamorph: Septoria tritici; Bayer Code […]) Wheat plants (variety Yuma) were grown from seed in a greenhouse in 50% mineral soil/50% soil-less Metro mix until the first leaf was fully emerged, with 7-10 seedlings per pot. These plants were inoculated with an aqueous spore suspension of Septoria tritici either prior to or after fungicide treatments. After inoculation the plants were kept in 100% relative humidity (one day in a dark dew chamber followed by two to three days in a lighted dew chamber) to permit spores to germinate and infect the leaf. The plants were then transferred to a greenhouse for disease to develop. The following table presents the activity of typical compounds of the present disclosure when evaluated in these experiments. The effectiveness of the test compounds in controlling disease was determined by assessing the severity of disease on treated plants, then converting the severity to percent control based on the level of disease on untreated, inoculated plants. • In each case of Table II the rating scale is as follows: […]

[2] = 24 h, One-Day Protectant (1DP), read-out: SEPTTR 100 PPM 1DP (% Disease Control rating)
[3] = 72 h, Three-Day Curative (3DC), read-out: SEPTTR 100 PPM 3DC (% Disease Control rating)

Structure (SMILES) | pest or weed control at 100 ppm [1, 2] [%] | pest or weed control at 100 ppm [1, 3] [%] | melting point [°C]
CCNC(=O)n1cc(F)c(NC(=O)c2ccccc2)nc1=O [Compound 44] | 76 to 100 | 76 to 100 | 249 to 251
CCNC(=O)n1cc(F)c(NC(=O)C(C)C)nc1=O [Compound 45] | 76 to 100 | 76 to 100 | 226 to 228
CCNC(=O)n1cc(F)c(NC(=O)c2ccccc2Cl)nc1=O [Compound 46] | 76 to 100 | 51 to 75 | 239 to 241
CC(=O)Nc1nc(=O)n(C(=O)NCc2ccc(Cl)cc2)cc1F [Compound 47] | 76 to 100 | 76 to 100 | 170 to 172
O=C(Nc1nc(=O)n(C(=O)NCc2ccc(Cl)cc2)cc1F)c1ccccc1 [Compound 48] | 76 to 100 | 76 to 100 | 210 to 212
CCNC(=O)n1cc(F)c(NC(=O)NCc2ccccc2OC)nc1=O [Compound 49, N-ethyl-5-fluoro-4-(3-(2-methoxybenzyl)ureido)-2-oxopyrimidine-1(2H)-carboxamide] | 0 to 25 | 0 to 25 | 248 to 250
COc1ccccc1CNC(=O)Nc1nc(=O)n(C(=O)NC(C)C)cc1F [Compound 50] | 0 to 25 | 0 to 25 | 251 to 253
CCCNC(=O)n1cc(F)c(NC(=O)NCc2ccccc2OC)nc1=O [Compound 51] | 0 to 25 | 0 to 25 | 248 to 250
CCCCCNC(=O)n1cc(F)c(NC(=O)NCc2ccccc2OC)nc1=O [Compound 52] | 0 to 25 | 0 to 25 | 248 to 250
COc1ccccc1CNC(=O)Nc1nc(=O)n(C(=O)NCc2ccccc2F)cc1F [Compound 53] | 0 to 25 | 0 to 25 | 229 to 231
